Tested on: EoL-1 (human eosinophilic leukaemia cell line) cells
Experiment: TNF-α-induced cytokine release, non-differentiated EoL-1 cells (NO PMA) (Luminex)
Assay type: cell-based
Parameters: key to Fractalkine (NO PMA), p of decrement / IL-1α (NO PMA), p of decrement / IL-1β (NO PMA), p of decrement / IL-1ra (NO PMA), p of decrement / IL-5 (NO PMA), p of decrement / IL-7 (NO PMA), p of decrement / IL-8 (NO PMA), p of decrement / IP-10 (NO PMA), p of decrement / MCP-1 (NO PMA), p of decrement / MIP-1β (NO PMA), p of decrement / VEGF (NO PMA), p of decrement: ns = non significant
Procedure: EoL-1 (human eosinophilic leukaemia cell line) cells (Saito et al., 1985; Mayumi, 1992) were maintained in RPMI-1640 medium with L-glutamine supplemented with 10% (v/v) FBS at 37° C. in a humidified atmosphere with 5% CO2. Where indicated, 24 h before the experiment 25 ng/mL PMA ((phorbol 12-myristate 13-acetate, purchased from Sigma Aldrich) was added to the medium to induce eosinophil granulation and differentiation (Ohtsu et al., 1993; Zimmermann et al., 2000).
Half-million cells were aliquoted per point in a 24 well plate; each experiment was performed in triplicate and carried out in parallel with eosinophils differentiated and non differentiated with PMA (25 ng/mL, 24 h). Cells were suspended in low serum medium (RPMI-1640, 0.1% (v/v) FBS). TNF-α was used to induce cytokine secretion as previously described by Steube et al. (2000), and the net release was obtained by comparison to the basal (non-TNF-α treated). In the first experiment we evaluated the concentration and time relation between TNF-α stimulation and cytokine release. Therefore, 5, 10, and 25 ng/mL of TNF-α was administered to the cells at 0, ½, 1, 2, 3, 6, 12 and 24 h (data not shown). An aliquot of 150 μL of supernate was collected for cytokines' analysis. […] Differentiated and non-differentiated EoL-1 cells were exposed from 0.1 to 2.3 mM levocabastine ([…]Levocabastine 0.05% solution eye drops containing cyclodextrins, without benzalkonium chloride), and aliquots of the supernates were collected after 12 and 24 h. The content of cytokines at time zero was estimated by treating the cells with 400 nM calcimycin (A-23187), which is a cytolytic agent that frees all the mediators from the cytoplasmic compartment. In addition, for each experiment we tested the effect of the vehicle, which was added to the wells in a concentration equal to the maximum amount used for drug dilution.
Samples (supernates 12 and 24 h) in triplicate were analyzed using Luminex 200™ (Luminex, Austin, Tex.) and Beadview software v1.0 (Upstate Cell Signaling Solutions, Temecula, Calif.).
All data are presented as mean±SEM for the indicated number of experiments. Statistical significance was determined by Newman-Keuls test after ANOVA using GraphPad Prism (version 3.0; GraphPad Software Inc., San Diego, Calif., USA). P-values<0.05 were considered to be significant.

[1] = 24 h, Levocabastine 2 mM vs TNF-α
[2] = 24 h, TNF-α 5 ng + Levocabastine 2 mM vs TNF-α
[3] = 24 h, TNF-α 10 ng + Levocabastine 2 mM vs TNF-α
[4] = 24 h, TNF-α 20 ng + Levocabastine 2 mM vs TNF-α
[5] = 24 h, TNF-α 5, 10, 20 ng + Levocabastine 2 mM vs TNF-α
[6] = 24 h, VCAM-1 + Levocabastine 2 mM vs VCAM-1
[7] = non-differentiated EoL-1 cells, in the presence of VCAM-1 or fibronectin

Compound: C[C@@H]1CN([C@H]2CC[C@](C#N)(c3ccc(F)cc3)CC2)CC[C@]1(C(=O)O)c1ccccc1 [Levocabastine, levocabastine]
- IL-8 (NO PMA), p of decrement [1]: ns
- IL-10 (NO PMA), p of decrement [1]: ns
- IL-12p40 (NO PMA), p of decrement [1]: P < 0.01
- IP-10 (NO PMA), p of decrement [1]: ns
- MCP-1 (NO PMA), p of decrement [1]: Increase
- MIP-1α (NO PMA), p of decrement [1]: Increase
- MIP-1β (NO PMA), p of decrement [1]: ns
- RANTES (NO PMA), p of decrement [1]: Increase
- TGF-α (NO PMA), p of decrement [1]: ns
- VEGF (NO PMA), p of decrement [1]: P < 0.001
- GM-CSF (NO PMA), p of decrement [2]: ns
- IL-1ra (NO PMA), p of decrement [2]: P < 0.01
- IL-1β (NO PMA), p of decrement [2]: ns
- IL-5 (NO PMA), p of decrement [2]: ns
- IL-6 (NO PMA), p of decrement [2]: ns
- IL-7 (NO PMA), p of decrement [2]: ns
- IL-8 (NO PMA), p of decrement [2]: ns
- IL-10 (NO PMA), p of decrement [2]: ns
- IL-12p40 (NO PMA), p of decrement [2]: P < 0.001
- MCP-1 (NO PMA), p of decrement [2]: ns
- TGF-α (NO PMA), p of decrement [2]: P < 0.05
- VEGF (NO PMA), p of decrement [2]: P < 0.001
- GM-CSF (NO PMA), p of decrement [3]: ns
- IL-1ra (NO PMA), p of decrement [3]: P < 0.05
- IL-1β (NO PMA), p of decrement [3]: ns
- IL-5 (NO PMA), p of decrement [3]: ns
- IL-6 (NO PMA), p of decrement [3]: ns
- IL-7 (NO PMA), p of decrement [3]: ns
- IL-8 (NO PMA), p of decrement [3]: ns
- IL-10 (NO PMA), p of decrement [3]: ns
- IL-12p40 (NO PMA), p of decrement [3]: P < 0.001
- MCP-1 (NO PMA), p of decrement [3]: ns
- TGF-α (NO PMA), p of decrement [3]: ns
- VEGF (NO PMA), p of decrement [3]: P < 0.001
- GM-CSF (NO PMA), p of decrement [4]: ns
- IL-1ra (NO PMA), p of decrement [4]: P < 0.01
- IL-1β (NO PMA), p of decrement [4]: ns
- IL-5 (NO PMA), p of decrement [4]: ns
- IL-6 (NO PMA), p of decrement [4]: ns
- IL-7 (NO PMA), p of decrement [4]: ns
- IL-8 (NO PMA), p of decrement [4]: ns
- IL-10 (NO PMA), p of decrement [4]: ns
- IL-12p40 (NO PMA), p of decrement [4]: P < 0.001
- MCP-1 (NO PMA), p of decrement [4]: ns
- TGF-α (NO PMA), p of decrement [4]: P < 0.05
- VEGF (NO PMA), p of decrement [4]: P < 0.001
- Fractalkine (NO PMA), p of decrement [5]: increase of cytokine secretion
- G-CSF (NO PMA), p of decrement [5]: increase of cytokine secretion
- IL-1α (NO PMA), p of decrement [5]: increase of cytokine secretion
- IP-10 (NO PMA), p of decrement [5]: increase of cytokine secretion
- MIP-1α (NO PMA), p of decrement [5]: increase of cytokine secretion
- MP-1β (NO PMA), p of decrement [5]: increase of cytokine secretion
- RANTES (NO PMA), p of decrement [5]: increase of cytokine secretion
- Fractalkine (NO PMA), p of decrement (24 h, TNF-α vs Lev 0.1 mM): ns
- IL-1ra (NO PMA), p of decrement (24 h, TNF-α vs Lev 0.1 mM): ns
- IL-1α (NO PMA), p of decrement (24 h, TNF-α vs Lev 0.1 mM): ns
- IL-1β (NO PMA), p of decrement (24 h, TNF-α vs Lev 0.1 mM): ns
- IL-5 (NO PMA), p of decrement (24 h, TNF-α vs Lev 0.1 mM): ns
- IL-7 (NO PMA), p of decrement (24 h, TNF-α vs Lev 0.1 mM): ns
- IL-8 (NO PMA), p of decrement (24 h, TNF-α vs Lev 0.1 mM): ns
- IP-10 (NO PMA), p of decrement (24 h, TNF-α vs Lev 0.1 mM): p < 0.05
- MCP-1 (NO PMA), p of decrement (24 h, TNF-α vs Lev 0.1 mM): ns
- MIP-1β (NO PMA), p of decrement (24 h, TNF-α vs Lev 0.1 mM): ns
- VEGF (NO PMA), p of decrement (24 h, TNF-α vs Lev 0.1 mM): ns
- Fractalkine (NO PMA), p of decrement (24 h, TNF-α vs Lev 0.5 mM): ns
- IL-1ra (NO PMA), p of decrement (24 h, TNF-α vs Lev 0.5 mM): ns
- IL-1α (NO PMA), p of decrement (24 h, TNF-α vs Lev 0.5 mM): ns
- IL-1β (NO PMA), p of decrement (24 h, TNF-α vs Lev 0.5 mM): ns
- IL-5 (NO PMA), p of decrement (24 h, TNF-α vs Lev 0.5 mM): ns
- IL-7 (NO PMA), p of decrement (24 h, TNF-α vs Lev 0.5 mM): ns
- IL-8 (NO PMA), p of decrement (24 h, TNF-α vs Lev 0.5 mM): ns
- IP-10 (NO PMA), p of decrement (24 h, TNF-α vs Lev 0.5 mM): p < 0.05
- MCP-1 (NO PMA), p of decrement (24 h, TNF-α vs Lev 0.5 mM): ns
- MIP-1β (NO PMA), p of decrement (24 h, TNF-α vs Lev 0.5 mM): ns
- VEGF (NO PMA), p of decrement (24 h, TNF-α vs Lev 0.5 mM): ns
- Fractalkine (NO PMA), p of decrement (24 h, TNF-α vs Lev 1.0 mM): ns
- IL-1ra (NO PMA), p of decrement (24 h, TNF-α vs Lev 1.0 mM): ns
- IL-1α (NO PMA), p of decrement (24 h, TNF-α vs Lev 1.0 mM): ns
- IL-1β (NO PMA), p of decrement (24 h, TNF-α vs Lev 1.0 mM): ns
- IL-5 (NO PMA), p of decrement (24 h, TNF-α vs Lev 1.0 mM): ns
- IL-7 (NO PMA), p of decrement (24 h, TNF-α vs Lev 1.0 mM): ns
- IL-8 (NO PMA), p of decrement (24 h, TNF-α vs Lev 1.0 mM): ns
- IP-10 (NO PMA), p of decrement (24 h, TNF-α vs Lev 1.0 mM): ns
- MCP-1 (NO PMA), p of decrement (24 h, TNF-α vs Lev 1.0 mM): ns
- MIP-1β (NO PMA), p of decrement (24 h, TNF-α vs Lev 1.0 mM): ns
- VEGF (NO PMA), p of decrement (24 h, TNF-α vs Lev 1.0 mM): ns
- Fractalkine (NO PMA), p of decrement (24 h, TNF-α vs Lev 2.3 mM): ns
- IL-1ra (NO PMA), p of decrement (24 h, TNF-α vs Lev 2.3 mM): ns
- IL-1α (NO PMA), p of decrement (24 h, TNF-α vs Lev 2.3 mM): ns
- IL-1β (NO PMA), p of decrement (24 h, TNF-α vs Lev 2.3 mM): ns
- IL-5 (NO PMA), p of decrement (24 h, TNF-α vs Lev 2.3 mM): ns
- IL-7 (NO PMA), p of decrement (24 h, TNF-α vs Lev 2.3 mM): ns
- IL-8 (NO PMA), p of decrement (24 h, TNF-α vs Lev 2.3 mM): ns
- IP-10 (NO PMA), p of decrement (24 h, TNF-α vs Lev 2.3 mM): ns
- MCP-1 (NO PMA), p of decrement (24 h, TNF-α vs Lev 2.3 mM): ns
- MIP-1β (NO PMA), p of decrement (24 h, TNF-α vs Lev 2.3 mM): ns
- VEGF (NO PMA), p of decrement (24 h, TNF-α vs Lev 2.3 mM): p < 0.01
- MIP-1α (NO PMA), p of increase (24 h, TNF-α vs Lev 0.1-2.3 mM): concentration dependent way p < 0.001
- RANTES (NO PMA), p of increase (24 h, TNF-α vs Lev 0.1-2.3 mM): concentration dependent way p < 0.001
- Fractalkine (NO PMA), p of decrement [6]: ns
- G-CSF (NO PMA), p of decrement [6]: ns
- GM-CSF (NO PMA), p of decrement [6]: ns
- IL-1ra (NO PMA), p of decrement [6]: P < 0.01
- IL-1α (NO PMA), p of decrement [6]: ns
- IL-1β (NO PMA), p of decrement [6]: ns
- IL-5 (NO PMA), p of decrement [6]: ns
- IL-6 (NO PMA), p of decrement [6]: P < 0.001
- IL-7 (NO PMA), p of decrement [6]: ns
- IL-8 (NO PMA), p of decrement [6]: P < 0.001
- IL-10 (NO PMA), p of decrement [6]: ns
- IL-12p40 (NO PMA), p of decrement [6]: ns
- IP-10 (NO PMA), p of decrement [6]: ns
- MCP-1 (NO PMA), p of decrement [6]: ns
- MIP-1α (NO PMA), p of decrement [6]: Increase
- MIP-1β (NO PMA), p of decrement [6]: ns
- RANTES (NO PMA), p of decrement [6]: Increase
- TGF-α (NO PMA), p of decrement [6]: ns
- VEGF (NO PMA), p of decrement [6]: P < 0.001
- release of VEGF (FIG. 4 Panel B) (Naïve EoL-1 cells challenged with TNF-α, levocabastine with cyclodextrin pre-treatment): reduced release
- IL-6 release (FIG. 13) [7]: inhibited
- release, cytokine not named (FIG. 12) [7]: inhibited

— patent US20130289070A1, “Use of Levocabastine for Modulating Generation of Pro-Inflammatory Cytokines” (Bausch & Lomb Incorporated, priority 2007, published 2013)
